The values below come from patent publication US20100015141A1, “4-PHENOXY-6-ARYL-1H-PYRAZOLO[3,4-D]PYRIMIDINE AND N-ARYL-6-ARYL-1H-PYRAZOLO[3,4-D]PYRIMIDIN-4-AMINE COMPOUNDS, THEIR USE AS MTOR KINASE AND PI3 KINASE INHIBITORS, AND THEIR SYNTHESES” (Wyeth, priority 2008, published 2010).

One assay deals with PI3K-α (Homo sapiens, UniProt P42336). Briefly: PI3K-alpha fluorescence polarization assay. The conditions noted are these: 20 μM PIP2, 25 μM ATP. The format is biochemical. The essentials: (§1)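 Buffer: 20 mM HEPES pH7.5, 2 mM MgCl2, 0.05% CHAPS, 0.01% βME. Enzyme with compound was reacted with final 20 μM diC8 PIP2 and 25 μM ATP for 30-60 minutes at room temperature. The stop/detection mix (10 nM TAMRA probe, 2.5 uM GST-murine GRP as added) was read by fluorescence polarization after 90-110 minutes.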
Chain of PI3K-α (P42336 whole entry, species assumed): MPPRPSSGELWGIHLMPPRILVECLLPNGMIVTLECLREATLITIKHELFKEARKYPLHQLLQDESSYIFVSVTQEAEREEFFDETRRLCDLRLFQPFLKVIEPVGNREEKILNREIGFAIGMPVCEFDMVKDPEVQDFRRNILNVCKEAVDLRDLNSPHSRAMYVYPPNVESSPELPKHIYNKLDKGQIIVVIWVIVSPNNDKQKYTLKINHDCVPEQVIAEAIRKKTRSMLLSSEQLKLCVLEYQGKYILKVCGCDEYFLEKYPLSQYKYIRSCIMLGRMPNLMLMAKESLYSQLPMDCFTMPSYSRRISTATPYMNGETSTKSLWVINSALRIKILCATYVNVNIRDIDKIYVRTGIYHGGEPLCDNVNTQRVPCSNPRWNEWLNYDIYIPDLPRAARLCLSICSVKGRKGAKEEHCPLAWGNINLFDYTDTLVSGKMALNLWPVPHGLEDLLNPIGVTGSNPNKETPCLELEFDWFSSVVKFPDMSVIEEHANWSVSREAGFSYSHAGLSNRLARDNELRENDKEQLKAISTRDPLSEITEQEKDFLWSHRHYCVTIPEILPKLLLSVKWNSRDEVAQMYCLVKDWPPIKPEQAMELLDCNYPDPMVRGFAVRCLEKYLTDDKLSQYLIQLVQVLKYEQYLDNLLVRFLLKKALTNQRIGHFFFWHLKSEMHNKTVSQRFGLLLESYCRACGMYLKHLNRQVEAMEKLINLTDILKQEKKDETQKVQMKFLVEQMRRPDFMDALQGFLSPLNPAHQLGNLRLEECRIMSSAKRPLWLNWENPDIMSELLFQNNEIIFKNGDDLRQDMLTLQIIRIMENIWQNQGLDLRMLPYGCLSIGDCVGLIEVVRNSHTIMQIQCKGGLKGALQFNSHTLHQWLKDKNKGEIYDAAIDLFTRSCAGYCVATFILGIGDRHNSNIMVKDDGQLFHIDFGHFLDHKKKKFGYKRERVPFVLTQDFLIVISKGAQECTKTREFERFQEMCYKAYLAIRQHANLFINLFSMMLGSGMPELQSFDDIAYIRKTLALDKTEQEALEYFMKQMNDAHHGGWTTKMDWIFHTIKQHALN
Chain of PI3K-α (P27986 whole entry partner, species assumed): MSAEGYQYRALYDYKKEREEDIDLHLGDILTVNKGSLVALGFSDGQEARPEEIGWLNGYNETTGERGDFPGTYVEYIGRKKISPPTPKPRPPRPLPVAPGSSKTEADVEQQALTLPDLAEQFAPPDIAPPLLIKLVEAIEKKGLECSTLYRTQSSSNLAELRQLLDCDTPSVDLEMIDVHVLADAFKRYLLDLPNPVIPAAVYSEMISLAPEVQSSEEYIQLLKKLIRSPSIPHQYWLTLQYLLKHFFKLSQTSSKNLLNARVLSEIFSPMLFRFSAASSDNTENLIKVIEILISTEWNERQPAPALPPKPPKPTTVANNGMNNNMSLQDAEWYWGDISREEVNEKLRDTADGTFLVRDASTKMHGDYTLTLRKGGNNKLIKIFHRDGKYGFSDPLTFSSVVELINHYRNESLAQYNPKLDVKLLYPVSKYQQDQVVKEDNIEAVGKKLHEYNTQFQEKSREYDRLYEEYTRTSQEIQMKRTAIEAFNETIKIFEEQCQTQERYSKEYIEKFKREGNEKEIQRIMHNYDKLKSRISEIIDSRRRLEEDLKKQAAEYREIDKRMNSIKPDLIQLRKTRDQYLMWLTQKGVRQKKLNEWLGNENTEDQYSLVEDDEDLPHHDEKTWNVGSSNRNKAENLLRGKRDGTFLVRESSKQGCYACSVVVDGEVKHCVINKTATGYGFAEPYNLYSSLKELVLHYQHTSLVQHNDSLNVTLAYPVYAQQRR

The target in the next assay is PI3K-β (Homo sapiens, UniProt P42338). Briefly: PI3K fluorescence polarization assay (PI3K-β). The format is biochemical. As to the method:
(§2) The reaction buffer was 20 mM HEPES pH7.5, 2 mM MgCl2, 0.05% CHAPS, and 0.01% βME (added fresh). The substrate solution was 40 μM PIP2 (diC8, Echelon, Salt Lake City Utah cat #P-4508, 1 mM in water) and 50 μM ATP in the reaction buffer. Nunc 384-well black polypropylene fluorescent plates were used for PI3K assays. The assay is run by putting 9.5 μl of freshly diluted enzyme in the reaction buffer per well, adding 0.5 μl of diluted drug or DMSO, and mixing. Then 10 μl of the substrate solution is added to each well to start the reaction. A final concentration of 20 μM PIP2 and 25 μM ATP in the reaction was used. Reactions were allowed to proceed for 30-60 minutes at room temperature. After 30-60 minutes, 20 μl of a solution of 10 nM TAMRA detector (Red detector probe-Echelon) and 2.5 uM of GST-murineGRP (1.5 mg/ml in 17% glycerol) was added per well to stop the reaction. The resulting solution was mixed well and allowed to stand for 90-110 minutes before reading plate. Assay Plates were read on Perkin-Elmer Envision plate readers with appropriate filters for Tamra [BODIPY-TMRI(1,3,4,5)P4]. Data obtained were used to calculate enzymatic activity and enzyme inhibition by inhibitor compounds. It is important to keep Red probe solutions dark. This procedure is adapted from Echelon Biosciences Inc procedure for their PI3-Kinase fluorescence polarization activity Assay kit Product number K-1100.
(Polarisation of emitted light reports the rotation of a fluorescent probe.)

The target in another assay is PI3K-γ (Homo sapiens, UniProt P48736). Briefly: PI3K-gamma fluorescence polarization assay. The format is biochemical. The conditions noted are these: 20 μM PIP2, 25 μM ATP. The essentials:
as §1

Another assay deals with PI3K-δ (Homo sapiens, UniProt O00329). The experiment in a line: PI3K fluorescence polarization assay (PI3K-δ). The format is biochemical. As to the method: as §2
Chain of PI3K-δ (O00329 whole entry, species assumed): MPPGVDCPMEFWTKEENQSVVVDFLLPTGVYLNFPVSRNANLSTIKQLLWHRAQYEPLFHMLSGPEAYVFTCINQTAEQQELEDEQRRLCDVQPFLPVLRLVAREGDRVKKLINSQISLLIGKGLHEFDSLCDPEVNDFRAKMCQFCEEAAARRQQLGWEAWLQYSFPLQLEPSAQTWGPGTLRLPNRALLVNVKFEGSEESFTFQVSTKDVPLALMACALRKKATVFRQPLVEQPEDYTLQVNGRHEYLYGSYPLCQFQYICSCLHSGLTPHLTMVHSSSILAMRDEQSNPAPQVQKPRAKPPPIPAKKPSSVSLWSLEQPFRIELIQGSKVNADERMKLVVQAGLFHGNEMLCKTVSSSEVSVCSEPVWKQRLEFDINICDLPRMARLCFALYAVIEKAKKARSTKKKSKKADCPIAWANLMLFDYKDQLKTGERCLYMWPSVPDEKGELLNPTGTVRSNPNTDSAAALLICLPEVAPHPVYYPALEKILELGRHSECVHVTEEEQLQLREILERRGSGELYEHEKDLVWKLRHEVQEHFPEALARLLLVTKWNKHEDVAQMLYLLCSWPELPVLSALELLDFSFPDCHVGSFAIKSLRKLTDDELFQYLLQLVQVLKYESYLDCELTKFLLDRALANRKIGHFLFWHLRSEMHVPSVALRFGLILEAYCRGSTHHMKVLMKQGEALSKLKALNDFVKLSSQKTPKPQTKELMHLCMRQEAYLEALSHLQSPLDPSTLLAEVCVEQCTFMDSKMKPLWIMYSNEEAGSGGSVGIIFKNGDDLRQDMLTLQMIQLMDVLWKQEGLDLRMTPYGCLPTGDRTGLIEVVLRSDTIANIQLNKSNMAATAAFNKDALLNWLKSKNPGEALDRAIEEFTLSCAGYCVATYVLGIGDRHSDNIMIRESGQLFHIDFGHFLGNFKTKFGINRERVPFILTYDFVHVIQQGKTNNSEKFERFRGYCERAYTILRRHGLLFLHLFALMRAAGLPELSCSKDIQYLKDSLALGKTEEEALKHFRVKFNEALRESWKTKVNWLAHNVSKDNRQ
Chain of PI3K-δ (P27986 whole entry partner, species assumed): as the sequence (P27986 whole entry partner, species assumed) above
In assay [1] the target is T1, mTOR (Homo sapiens, UniProt P42345). The experiment in a line: mTOR enzyme assay (DELFIA, His6-S6K phosphorylation). Format: biochemical. Set-up: FLAG. The conditions noted are these: 100 μM ATP, 1.25 μM His6-S6K.
The next assay has as its system human tumor xenografts. Particulars: cited from earlier work.
Assay [2] has as its system acute lymphoblastic leukemia. Particulars: in vivo; cited from earlier work.
Assay [3] has as its target T1, mTOR. Particulars: read-out: mTOR IC50; mTOR complexes (PI103) / mTOR enzymes (ZSTK474); cited from earlier work.

As usually defined, the IC50 is the point on the concentration scale where inhibition reaches its midpoint.

Each structure is given as a SMILES string. Read-outs that look alike come from different tables or passages of the source.

Chain of PI3K-γ (P48736 whole entry, species assumed): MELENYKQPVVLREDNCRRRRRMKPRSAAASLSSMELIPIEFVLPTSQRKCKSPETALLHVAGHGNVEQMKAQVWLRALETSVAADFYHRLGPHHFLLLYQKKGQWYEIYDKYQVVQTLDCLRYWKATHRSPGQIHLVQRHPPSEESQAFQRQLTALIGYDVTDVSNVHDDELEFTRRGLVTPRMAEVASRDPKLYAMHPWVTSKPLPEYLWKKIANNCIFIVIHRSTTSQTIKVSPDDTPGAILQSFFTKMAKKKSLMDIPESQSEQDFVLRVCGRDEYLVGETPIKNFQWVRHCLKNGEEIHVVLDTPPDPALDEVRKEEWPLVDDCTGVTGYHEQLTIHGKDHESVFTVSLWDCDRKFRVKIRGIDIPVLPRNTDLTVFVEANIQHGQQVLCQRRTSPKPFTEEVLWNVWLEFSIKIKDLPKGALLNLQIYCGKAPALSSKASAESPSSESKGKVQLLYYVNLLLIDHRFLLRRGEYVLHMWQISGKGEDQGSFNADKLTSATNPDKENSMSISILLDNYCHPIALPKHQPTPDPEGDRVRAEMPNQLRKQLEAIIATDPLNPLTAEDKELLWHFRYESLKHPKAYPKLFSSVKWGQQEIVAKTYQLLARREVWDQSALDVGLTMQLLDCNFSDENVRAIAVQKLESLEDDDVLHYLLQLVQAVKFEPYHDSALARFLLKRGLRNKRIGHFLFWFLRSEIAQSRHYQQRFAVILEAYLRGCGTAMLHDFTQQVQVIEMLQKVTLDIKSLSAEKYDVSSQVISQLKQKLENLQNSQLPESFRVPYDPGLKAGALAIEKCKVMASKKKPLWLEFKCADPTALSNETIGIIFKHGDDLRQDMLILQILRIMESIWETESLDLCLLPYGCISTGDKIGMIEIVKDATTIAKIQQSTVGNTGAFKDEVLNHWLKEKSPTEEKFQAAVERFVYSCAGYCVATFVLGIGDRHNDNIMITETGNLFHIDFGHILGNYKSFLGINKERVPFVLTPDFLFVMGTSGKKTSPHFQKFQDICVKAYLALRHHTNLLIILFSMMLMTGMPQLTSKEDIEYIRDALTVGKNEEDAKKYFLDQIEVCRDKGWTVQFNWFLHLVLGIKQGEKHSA
Chain of PI3K-β (P42338 whole entry, species assumed): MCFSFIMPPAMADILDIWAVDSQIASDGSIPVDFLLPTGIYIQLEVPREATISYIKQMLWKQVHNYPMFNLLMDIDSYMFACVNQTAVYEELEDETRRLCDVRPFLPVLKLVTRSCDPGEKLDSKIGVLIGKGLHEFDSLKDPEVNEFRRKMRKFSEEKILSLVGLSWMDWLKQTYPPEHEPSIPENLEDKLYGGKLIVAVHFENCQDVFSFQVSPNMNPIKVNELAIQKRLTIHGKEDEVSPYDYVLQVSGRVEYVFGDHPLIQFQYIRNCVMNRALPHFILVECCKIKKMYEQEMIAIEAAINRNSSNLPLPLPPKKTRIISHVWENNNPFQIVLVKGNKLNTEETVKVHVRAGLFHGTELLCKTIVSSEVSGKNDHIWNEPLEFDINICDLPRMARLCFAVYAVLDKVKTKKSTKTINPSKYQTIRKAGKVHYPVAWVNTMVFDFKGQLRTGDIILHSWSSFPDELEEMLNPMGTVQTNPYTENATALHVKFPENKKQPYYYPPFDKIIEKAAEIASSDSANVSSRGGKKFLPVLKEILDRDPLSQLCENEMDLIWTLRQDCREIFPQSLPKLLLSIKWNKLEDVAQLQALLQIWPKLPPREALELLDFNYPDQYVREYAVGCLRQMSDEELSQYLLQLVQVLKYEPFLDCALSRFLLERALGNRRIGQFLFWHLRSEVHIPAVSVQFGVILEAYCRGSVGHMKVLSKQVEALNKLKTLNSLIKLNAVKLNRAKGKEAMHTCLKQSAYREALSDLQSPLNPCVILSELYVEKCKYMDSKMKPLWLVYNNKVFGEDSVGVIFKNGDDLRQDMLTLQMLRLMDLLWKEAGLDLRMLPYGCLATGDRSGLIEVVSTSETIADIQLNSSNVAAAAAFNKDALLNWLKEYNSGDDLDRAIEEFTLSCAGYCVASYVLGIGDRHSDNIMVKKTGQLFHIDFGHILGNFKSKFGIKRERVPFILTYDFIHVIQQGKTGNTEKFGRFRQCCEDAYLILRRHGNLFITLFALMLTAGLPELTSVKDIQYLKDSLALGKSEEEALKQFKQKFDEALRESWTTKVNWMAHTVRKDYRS
Chain of PI3K-β (P27986 whole entry partner, species assumed): as the sequence (P27986 whole entry partner, species assumed) above

As to `COc1cccc(-c2nc(Oc3ccc(NC(C)=O)cc3)c3cnn(C)c3n2)c1` [Example 49, N-(4-{[6-(3-methoxyphenyl)-1-methyl-1H-pyrazolo[3,4-d]pyrimidin-4-yl]oxy}phenyl)acetamide], the concentration for half-maximal inhibition (IC50) against PI3K-α was 258 nM; at PI3K-β it was 1040 nM; against PI3K-γ, 514 nM; against PI3K-δ it was 134 nM; against mTOR [1], above 20000 nM.

`CC(=O)Nc1ccc(Oc2nc(-c3cccc(O)c3)nc3c2cnn3C)cc1` [Example 50, N-(4-{[6-(3-hydroxyphenyl)-1-methyl-1H-pyrazolo[3,4-d]pyrimidin-4-yl]oxy}phenyl)acetamide]: the half-inhibitory concentration (IC50) against PI3K-α was determined as 113 nM; on PI3K-β, 213 nM; at PI3K-γ, 114 nM; against PI3K-δ, 65 nM; against mTOR [1] it was 2100 nM.

As for `Cc1noc(C)c1-c1nc(Nc2ccc(C(N)=O)cc2)c2cnn(C)c2n1` [Example 63, 4-{[6-(3,5-dimethylisoxazol-4-yl)-1-methyl-1H-pyrazolo[3,4-d]pyrimidin-4-yl]amino}benzamide], the 50% inhibitory concentration (IC50) against PI3K-α was 75 nM; at PI3K-β it was 2150 nM; on PI3K-γ it was 416 nM; against PI3K-δ, 439 nM; against mTOR [1], 2800 nM.

In the case of `Cn1ncc2c(Nc3ccc(C(N)=O)cc3)nc(-c3cccc(Cl)c3)nc21` [Example 64, 4-{[6-(3-chlorophenyl)-1-methyl-1H-pyrazolo[3,4-d]pyrimidin-4-yl]amino}benzamide], the concentration for half-maximal inhibition (IC50) at PI3K-α is 40 nM; at PI3K-β, 1620 nM; on PI3K-γ, 331 nM; against PI3K-δ, 170 nM; against mTOR [1], 300 nM.

On to `Cn1c(=O)n(-c2ccc(C(C)(C)C#N)cc2)c2c3cc(-c4cnc5ccccc5c4)ccc3ncc21` [NVP-BEZ-235, 2-methyl-2-(4-(3-methyl-2-oxo-8-(quinolin-3-yl)-2,3-dihydro-1H-imidazo[4,5-c]quinolin-1-yl)phenyl)propanenitrile], for which the “activity in human tumor xenograft models” value with human tumor xenografts (prostrate (PC-3) and glioblastoma (U-87)) is “demonstrated activity”.

`Oc1cccc(-c2nc(N3CCOCC3)c3oc4ncccc4c3n2)c1` [PI103, 3-(4-(4-morpholinyl)pyrido[3′,2′:4,5]furo[3,2-d]pyrimidin-2-yl)phenol]: in the assay on human tumor xenografts (I.P. dosing in mice, U87MG, PC3, MDA-MB-468, MDA-MB-435, HCT 116, SKOV3, IGROV-1), the “activity in human tumor xenograft models” value is “demonstrated activity”.

In the case of `CO[C@H]1C[C@@H]2CC[C@@H](C)[C@@](O)(O2)C(=O)C(=O)N2CCCC[C@H]2C(=O)O[C@H]([C@H](C)C[C@@H]2CC[C@@H](OC(=O)C(C)(CO)CO)[C@H](OC)C2)CC(=O)[C@H](C)/C=C(\C)[C@@H](O)[C@@H](OC)C(=O)[C@H](C)C[C@H](C)/C=C/C=C/C=C/1C` [Torisel], the “activity in NOS/SCID xenograft mouse model of acute lymphoblastic leukemia” value in assay [2] is reported as “active”.

As to `FC(F)c1nc2ccccc2n1-c1nc(N2CCOCC2)nc(N2CCOCC2)n1` [ZSTK474, 2-(2-difluoromethylbenzoimidazol-1-yl)-4,6-dimorpholino-1,3,5-triazine], in the assay on human tumor xenografts (chronic oral administration, 400 mg/kg, A549, PC-3, WiDr), the “tumor growth in mouse human xenograft cancer models” value is “completely inhibited growth”. The 50% inhibitory concentration (IC50) on mTOR [3] is above 10000 nM.
